Test results taken from patent US11382907B2, “Methods and compositions for treating aging-associated impairments using CCR3-inhibitors” (Alkahest, Inc., priority 2017, dated 2022).

How the values were obtained:
[1] = tested on: BrdU-positive cells in the hippocampus; assay: Histology: BrdU positive cells in hippocampus of aged mice; type: in vivo, C57Bl/6 mice
Protocol: For fluorescent microscopy, the following antibodies were used in the given concentrations: GFAP, 1:500, DAKO; Iba1, 1:1000, Wako; and BrdU, 1:500, AbCam. Antigen retrieval protocol was required for BrdU (2N HCl, 37 C, 30 min) prior to blocking. The appropriate fluorescent secondary antibodies were applied the next day at a concentration of 1:300 for one hour at room temperature. Prolong Gold Mounting Media was used to coverslip the slides. Images were acquired on a light microscope at 5× magnification.
Two-month-old or 18-month-old C57Bl/6 mice were dosed with either IgG antibody control by IP injection or Compound 1 subcutaneously by Alzet osmotic pump for either 2 or 4 weeks. During the last week of treatment, mice were subjected to behavior testing prior to perfusion on the last day of treatment. All mice received 5 consecutive days of BrdU injection at 150 mg/kg IP immediately prior to treatment start. […]

[2] = tested on: two-month-old C57Bl/6 mice treated with rmCCL11; assay: Y-maze test in young mice given recombinant mouse CCL11; type: in vivo; details: 2-month-old mice; rmCCL11 i.p.; Compound 1 30 mg/kg p.o. b.i.d.
Protocol: A large Y-maze test assesses short-term memory of the familiarity of a specific context. Mice are brought to the experimental room for at least 30 min of acclimation to the experimental room conditions (dim lighting) prior to testing. For the initial training trial, the mouse is placed at the end of one arm of a large Y-maze designated “start arm” (arm length: 15 inches). The third arm of the maze is blocked off, allowing the mouse to explore two of the three arms freely (“start arm” and “familiar arm”) for 5 min. Each arm contains spatial cues. One hour later, the mouse is placed back into the maze in the “start arm” and allowed to explore all three arms with the third arm unblocked (“novel arm”). Movements in and out of each arm are tracked using automated tracking software (CleverSys). Testing is performed under dim lighting, and the apparatus is cleaned with 70% ethanol between trials.
Two-month-old C57Bl/6 mice were dosed with either vehicle control or Compound 1 by oral gavage twice daily for 18 days. During the last week of treatment, mice were subjected to behavior testing prior to perfusion on the last day of treatment. All mice received 5 consecutive days of BrdU injection at 150 mg/kg IP immediately prior to treatment start. […]

Cc1cc(C(=O)N(C)C)cc(NC(=O)[C@H]2CCC(=O)N2C2CCN(Cc3ccc(Cl)c(C)c3)CC2)n1 [Compound 1]
BrdU-positive cells in the hippocampus ([1]; 16.5-month-old mice, four-week dosing by pump): significantly increased the number of BrdU-positive cells | BrdU-positive cells in the hippocampus ([1]; 18-month-old mice, higher dosing for 2 weeks by pump): trend in increased BrdU-positive cells | memory in the Y-maze [2]: no longer significantly different from control mice
